Experimental data taken from publication PMC9909315, “SY-707, an ALK/FAK/IGF1R inhibitor, suppresses growth and metastasis of breast cancer cells” (Acta Biochimica et Biophysica Sinica, 2022).
Like-named read-outs stand apart in the source and are kept apart here.

Experiments:
MCF-7 cells [1] = experiment: Cell cycle analysis (PI, flow cytometry); format: cell-based; conditions: MCF-7, 24 h, dose-dependent; decrease of S phase
Procedure: MCF-7 cells were treated with 0.1% DMSO (control) or with SY-707 solution at indicated concentrations for 24 h at 37°C, then the cells were harvested by centrifugation at 350 g and washed twice with PBS. Cell apoptosis was determined using the PE Annexin V Apoptosis Detection kit (BD Biosciences, San Jose, USA) following the manufacture’s guides. Breifly, cells were resuspended with 100 μL of binding buffer containing Annexin V and 7-AAD. After 15 min of incubation at room temperature in the dark, 400 μL of binding buffer was added to the mixture and the cells were analyzed with a Guava flow cytometer (Millipore). Cell cycle arrest was evaluated by incorporation of propidium (PI; Sigma-Aldrich, St Louis, USA) into the permeablized cells. After being treated with DMSO or compounds for 24 h, cells were harvested, washed twice with cold PBS, fixed with ice-cold 70% ethanol, followed by a secondary staining step with staining buffer (0.25 mg/mL RNase, 0.025 mg/mL PI, in PBS) for 1 h at 37°C. Compound regulation of cell-cycle was analyzed using the Guava flow cytometer. Data were analyzed with FlowJo software.

MCF-7 cells [2] = experiment: Cell adhesion assay; format: cell-based; conditions: MCF-7, 24 h pretreatment, dose-dependent
Procedure: (§1) MCF-7 and T47D cells were plated in 6-well plates and pretreated with different concentrations of PF-562271 or SY-707 for 24 h, and then trypsinized, washed and resuspended in culture medium. Cells were added into each well and incubated for 6 h. Non-adherent cells were collected by washing with PBS and counted.

T47D cells = experiment: Cell adhesion assay; format: cell-based; conditions: 24 h pretreatment, dose-dependent
Procedure: as §1

[3] = test system: phosphorylation of Pyk2 at Tyr402; experiment: Western blot of Pyk2 phosphorylation in MCF-7 cells; format: cell-based; conditions: MCF-7, 1 h treatment
Procedure: Equal amounts of cell lysates were loaded onto 10% SDS-PAGE gel and separated by electrophoresis. Separated proteins were then electro-transferred onto polyvinylidene fluoride (PVDF) membranes (Millipore, Bedford, USA). After being blocked with Tris-buffered saline containing 0.1% Tween-20 (TBST) and 5% bovine serum albumin (BSA), the membranes were incubated with primary antibodies at room temperature for 2 hours or at 4°C, then washed with TBST, followed by treatment with horseradish peroxidase (HRP)-conjugated goat anti-rabbit IgG secondary antibody at room temperature for another 1 h. The targeted protein bands were visualized using an enhanced chemiluminescence (ECL) plus system (Thermo Fisher Scientific). […]
Figure4 Inhibitory effects of SY-707 on the phosphorylation of FAK(A,B) Concentration-dependent inhibition of SY-707 on phosphorylation of FAK in T47D (A) and MCF-7 (B) cells. […] Cell lysates were analyzed by western blot analysis using specific antibodies against p-FAK, p-Pyk2, p-AKT and p-ERK respectively. […] Cell lysates were analyzed by western blot analysis using specific antibodies against p-IGF1R, p-STAT3, p-AKT and p-ERK respectively.

Pharmacokinetic study = format: in vivo, beagle dogs; conditions: serum, Beagle dog, 5 mg/kg PO; for CL/F: read-out: Cl_F_obs (converted); for MRT inf: read-out: MRT INF_obs
Procedure: Female SD rats (5-6 weeks old) or beagle dogs were administrated with SY-707 at a single dose of 5 mg/kg, and blood samples were taken sequentially from 2 min to 24 h after compound administration. […] The serum samples were collected by centrifugation and stored at –80 °C. Compound concentrations in the sample serums were further analyzed with an API-4000 LC-MS/MS system (Applied Biosystem, Foster City, USA), and pharmacokinetic parameters ( T 1/2, T max, C max, AUC 0-INF, Cl_F_obs, MRT INF_obs, and F(%)) were calcuated using the WinNonlin software (version 6.2; WinNonlin Professional, Pharsight, USA).

Tissue distribution = format: in vivo; conditions: SD rats, oral 15 mg/kg; except the uterus and spleen
Procedure: In addition, SY-707 also had good clearance parameters and oral bioavailability in these two species.
Supplementary Figure S1. The tissue distribution profile of SY-707 Tissue distribution of SY-707 in SD rats was measured after oral administration of SY-707 (15 mg/kg).

COc1cc(N2CCC(N3CCN(C)CC3)CC2)ccc1Nc1nc2c(c(Nc3ccccc3S(=O)(=O)NC(C)C)n1)CCN2 [SY-707, N-isopropyl-2-((2-((2-methoxy-4-(4-(4-methylpiperazin-1-yl)piperidin-1-yl)phenyl)amino)-6,7-dihydro-5H-pyrrolo[2,3-d]pyrimidin-4-yl)amino)benzenesulfonamide]
cell cycle arrest (MCF-7 cells [1]): pronounced G2/M phase arrest
cell adhesion (MCF-7 cells [2]): characteristically repressed
cell adhesion (T47D cells): characteristically repressed
phosphorylation of Pyk2 at Tyr402 [3]: dose-dependently suppressed
AUC(0-inf) (Pharmacokinetic study; both sexes, All): 459 ng·h/mL
Cmax (Pharmacokinetic study; both sexes, All): 36 ng/mL
Tmax (Pharmacokinetic study; both sexes, All): 2.83 h
bioavailability (Pharmacokinetic study; both sexes, All): 21.1%
half-life (Pharmacokinetic study; both sexes, All): 9.72 h
CL/F (Pharmacokinetic study; both sexes, All): 195 mL/min/kg
MRT inf (Pharmacokinetic study; both sexes, All): 13.6 h
AUC(0-inf) (Pharmacokinetic study; Female): 438 ng·h/mL
Cmax (Pharmacokinetic study; Female): 34.2 ng/mL
Tmax (Pharmacokinetic study; Female): 2.67 h
bioavailability (Pharmacokinetic study; Female): 18.8%
half-life (Pharmacokinetic study; Female): 10.1 h
CL/F (Pharmacokinetic study; Female): 202 mL/min/kg
MRT inf (Pharmacokinetic study; Female): 13.7 h
AUC(0-inf) (Pharmacokinetic study; Male): 479 ng·h/mL
Cmax (Pharmacokinetic study; Male): 37.8 ng/mL
Tmax (Pharmacokinetic study; Male): 3 h
bioavailability (Pharmacokinetic study; Male): 23.8%
half-life (Pharmacokinetic study; Male): 9.33 h
CL/F (Pharmacokinetic study; Male): 188 mL/min/kg
MRT inf (Pharmacokinetic study; Male): 13.6 h
distribution in rat tissues (AUC 0–24 h) relative to plasma (Tissue distribution): other organs had lower level of SY-707 than the plasma
